According to patent US9238602B1, “Process for the preparation of cis-2,2,4,4-tetramethylcyclobutane-1,3-diol” (Eastman Chemical Company, priority 2014, dated 2016):

Assay: cis/trans 2,2,4,4-tetramethylcyclobutane-1,3-diol solubility ratio (cis isomer solubility limit divided by trans isomer solubility limit)
Type: physicochemical
Description: The definition of cis/trans 2,2,4,4-tetramethylcyclobutane-1,3-diol solubility ratio is also known to one of ordinary skill in the art; in one embodiment, the cis/trans 2,2,4,4-tetramethylcyclobutane-1,3-diol solubility ratio can be defined as the ratio of the cis isomer solubility limit divided by the trans isomer solubility limit at a given temperature for a given solvent or solvents. For example, the cis/trans solubility ratio in water at 80° C. is about 1.0. For MIBC, the cis/trans solubility ratio at 80° C. is about 0.74.

## CC1(C)C(O)C(C)(C)C1O (centres unmarked) [2,2,4,4-tetramethylcyclobutane-1,3-diol]
In MIBC (methyl isobutyl carbinol) at 80° C.
  cis/trans solubility ratio: about 0.74
In water at 80° C.
  cis/trans solubility ratio: about 1.0
